# Experimental data reported in PMC7615185, “Structural basis for ion selectivity in potassium-selective channelrhodopsins” (Cell, 2023).
# Molecular target: T1, HcKCR1 (Hyphochytrium catenoides, UniProt A0ABF7PQA2, A110C)
# T1 construct: M1-S265; 7TM rhodopsin domain; Sf9, HA signal/FLAG and eGFP-His10-Rho1D4 tags cleaved by 3C, MSP1E3D1/SoyPC nanodisc; residues 6-260 modelled; homotrimer; eYFP fusion in HEK293 for patch clamp
# T1 sequence (A0ABF7PQA2 1-265 A110C): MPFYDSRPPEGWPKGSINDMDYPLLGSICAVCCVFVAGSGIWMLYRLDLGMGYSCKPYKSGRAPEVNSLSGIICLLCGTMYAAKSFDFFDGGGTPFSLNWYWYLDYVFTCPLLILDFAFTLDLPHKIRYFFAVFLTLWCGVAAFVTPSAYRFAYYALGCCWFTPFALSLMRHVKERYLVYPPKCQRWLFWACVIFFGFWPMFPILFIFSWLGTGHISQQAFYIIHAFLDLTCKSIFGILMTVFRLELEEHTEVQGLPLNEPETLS
# Assay: cryo-EM structure, retinal isomer by HPLC
# Format: binding
# Conditions: dark state, nanodisc, pH 7.5; covalent Schiff base to K233
smiles,measurement,value
CC1=C(/C=C/C(C)=C/C=C/C(C)=C/C=O)C(C)(C)CCC1 [all-trans-retinal],"cryo-EM structure, retinal isomer by HPLC",accurate modeling of most residues of both HcKCRs
